Data published in patent publication US20230276792A1, “SELECTIVE HERBICIDES BASED ON SUBSTITUTED ISOXAZOLIN CARBOXAMIDES AND CLOQUINTOCET-MEXYL” (Bayer Aktiengesellschaft, priority 2020, published 2023).

Key:
Format in all cases: in vivo
[1] = system: spring barley, HORVS Montoya; test: Tank-mix post-emergence crop damage, herbicide with and without safener cloquintocet-mexyl, greenhouse; design: key to Reduction [Difference]: damage without safener − damage with safener, % points (0–100% scale); conditions: cloquintocet-mexyl 100 g a.i./ha
Description: (§1) Seeds of crops (spring wheat, TRZAS; spring barley, HORVS; maize, ZEAMA) were placed in sandy loam soil in peat pots, covered with soil and cultivated in a greenhouse under good growth conditions. Two to three weeks after sowing, the test plants were treated at the 1 to 3-leaf stage. The herbicide/safener active compound combinations according to the invention, formulated as wettable powders or emulsion concentrates, and, in parallel tests, the correspondingly formulated individual active compounds were sprayed onto the green parts of the plants in various dosages using an amount of water of 300 l/ha (converted).
(§2) The pots were returned under good growing conditions in a glasshouse and a visual assessment of herbicidal effects was made at intervals from 1 to 3 weeks after herbicide application (DAT=days after treatment). Assessment was on a percentage basis in comparison with untreated control plants (0%=no injury, 100%=complete kill).
(§3) Reduction [Difference]=herbicide damage without safener−herbicide damage with safener
(§4) Reduction [%]=(Reduction [Difference]*100)/herbicide damage without safener
(§5) a) Plant Species, Variety: HORVS Montoya, Safener (SAF): Cloquintocet-Mexyl

[2] = system: spring wheat, TRZAS Triso; test: as above; design: key to Reduction [Difference]: percentage points of damage: damage without safener minus damage with safener; conditions: 10 DAT
Description: as §1, §2, §3, §4
(§6) b) Plant Species, Variety: TRZAS Triso, Safener (SAF): Cloquintocet-Mexyl

[3] = system: spring wheat, TRZAS Triso; test: Safener seed treatment, post-emergence herbicide application, crop damage; conditions: for HER effect + SAF [%]: cloquintocet-mexyl 0, 5 g a.i./kg seed; for HER effect [%]: without safener
Excerpt: (§7) For safener seed treatment trials, sufficient seed amounts of the respective crops (spring wheat (TRZAS); spring barley (HORVS)) were weighed into screw cap glass bottles with a minimum volume trice of the seeds.
(§8) As a first step, specified safeners formulated as wettable powder (WP) or wettable granules (WG) were weighed out for the required dosages (g a.i./kg seed), corresponding to the seed amounts. The safener amounts were mixed with a coloured slurry blind formulation type, pre-diluted with milk at 3.5% fat rate (25 mgs slurry formulation plus 2 ml milk per 10 grams of seed). A tube roller was used for coating. The solutions were gradually pipetted each on the rotating seeds followed by coating for min. 3 hours until all liquid had been soaked up by the seeds. Thereafter, the coated seeds were put flat on open trays for drying over night at room temperature.
(§9) Treated seeds were then placed into pots (7 cm diameter) on the surface of sandy loam, pressed down, flat covered with additional soil and finally covered with sandy soil, also pressed down, watered, and kept under good growth conditions in a greenhouse, until the plants had reached 2-leaf-stage (BBCH 12).
(§10) At that stage, post-emergence application of the specified herbicides was done on: • a) pot sets containing plants with safener-coated seeds as described above, • b) as a reference, pot sets of plants without seed treatment.
(§11) The herbicides were formulated as wettable powder (WP). Equivalent to the spray area, compound amounts were weighed out and diluted related to the water application rate (300 l/ha) to an aqueous suspension plus additive (1 l/ha MERO). Dosage related equivalents were conventionally sprayed on trays with the potted plants.
(§12) After application, the test plants were kept under good growth conditions in a greenhouse. Assessment timings were 10 and 21 days after treatment (DAT) with the herbicide, by visual scoring of the crop damage in % (comparison of untreated with treated plants, either sprayed only with herbicide or with herbicide on plants with treated seeds).
as §3, §4, §6

[4] = system: spring barley, HORVS Montoya; test: as above; design: key to Reduction [Difference]: % crop damage without safener minus % damage with safener; conditions: cloquintocet-mexyl 0, 5 g a.i./kg seed
Excerpt: as §7, §8, §9, §10, §11, §12, §3, §4, §5

[5] = HER dose 32 g a.i./ha, cloquintocet-mexyl 100 g a.i./ha
[6] = HER dose 2 g a.i./ha, cloquintocet-mexyl 50 g a.i./ha

C=CC1(C(=O)NC2COC(C(=O)OC)C2)CC(c2cc(C)cc(F)c2)=NO1 (mixture of isomers) [Example 1.71] was tested, and the “Reduction [%]” value ([1]; 21 DAT, HER dose 32 g a.i./ha) was 57%, the “Reduction [Difference]” value ([1]; 21 DAT, HER dose 32 g a.i./ha) was 40 and the “HER effect + SAF” value [2, 5] was 10%. For the same molecule, the “Reduction [%]” value [2, 5] was 88%, the “Reduction [Difference]” value [2, 5] was 75 and the “HER effect + SAF [%]” value ([3]; 10 DAT, HER dose 8 g a.i./ha) was 0%. For the same molecule, the “HER effect [%]” value ([3]; 10 DAT, HER dose 8 g a.i./ha) was 50%, the “HER effect + SAF [%]” value ([3]; 10 DAT, HER dose 32 g a.i./ha) was 0% and the “HER effect [%]” value ([3]; 10 DAT, HER dose 32 g a.i./ha) was 85%.
With COC(=O)C1C=CC(NC(=O)C2(C)CC(c3cccc(F)c3)=NO2)C1 (stereo not shown) [Example 1.20] the “Reduction [%]” value ([1]; 21 DAT, HER dose 32 g a.i./ha) was 88%, the “Reduction [Difference]” value ([1]; 21 DAT, HER dose 32 g a.i./ha) was 70 and the “Reduction [%]” value [2, 5] was 80%. The “HER effect + SAF [%]” value ([3]; 10 DAT, HER dose 8 g a.i./ha) was 0%, the “HER effect [%]” value ([3]; 10 DAT, HER dose 8 g a.i./ha) was 20% and the “HER effect + SAF [%]” value ([3]; 10 DAT, HER dose 32 g a.i./ha) was 0%. For the same molecule, the “HER effect [%]” value ([3]; 10 DAT, HER dose 32 g a.i./ha) was 50%, the “Reduction [%]” value ([4]; 21 DAT, HER dose 32 g a.i./ha) was 88% and the “Reduction [Difference]” value ([4]; 21 DAT, HER dose 32 g a.i./ha) was 70.
COCCOC(=O)C1C=CC(NC(=O)C2(C)CC(c3cc(Cl)cc(C#N)c3)=NO2)C1 (stereo not shown) [Example 1.5] was tested, and the “HER effect + SAF” value [2, 6] was 20%, the “Reduction [%]” value [2, 6] was 60% and the “Reduction [Difference]” value [2, 6] was 30. The “HER effect + SAF [%]” value ([3]; 21 DAT, HER dose 8 g a.i./ha) was 10%, the “HER effect [%]” value ([3]; 21 DAT, HER dose 8 g a.i./ha) was 90% and the “HER effect + SAF [%]” value ([3]; 21 DAT, HER dose 32 g a.i./ha) was 30%. The “HER effect [%]” value ([3]; 21 DAT, HER dose 32 g a.i./ha) was 95%, the “HER effect + SAF” value ([4]; 21 DAT, HER dose 8 g a.i./ha) was 10% and the “Reduction [%]” value ([4]; 21 DAT, HER dose 8 g a.i./ha) was 80%. The “Reduction [Difference]” value ([4]; 21 DAT, HER dose 8 g a.i./ha) was 40, the “HER effect + SAF” value ([4]; 21 DAT, HER dose 32 g a.i./ha) was 20% and the “Reduction [%]” value ([4]; 21 DAT, HER dose 32 g a.i./ha) was 75%. For the same molecule, the “Reduction [Difference]” value ([4]; 21 DAT, HER dose 32 g a.i./ha) was 60.
For CC1(C(=O)NC2COC(C(=O)OCc3ccccc3)C2)CC(c2cccc(F)c2)=NO1 (mixture of isomers) [Example 1.79], the “Reduction [Difference]” value ([2]; HER dose 24 g a.i./ha, cloquintocet-mexyl 100 g a.i./ha) was 50, the “HER effect + SAF [%]” value ([3]; 10 DAT, HER dose 6 g a.i./ha) was 0% and the “HER effect [%]” value ([3]; 10 DAT, HER dose 6 g a.i./ha) was 30%. For the same molecule, the “HER effect + SAF [%]” value ([3]; 10 DAT, HER dose 24 g a.i./ha) was 10%, the “HER effect [%]” value ([3]; 10 DAT, HER dose 24 g a.i./ha) was 50% and the “Reduction [%]” value ([4]; 10 DAT, HER dose 24 g a.i./ha) was 86%. For the same molecule, the “Reduction [Difference]” value ([4]; 10 DAT, HER dose 24 g a.i./ha) was 60.
For CCOC(=O)C1CC(NC(=O)C2(C)CC(c3cccc(F)c3)=NO2)CO1 (mixture of isomers) [Example 1.67], the “Reduction [%]” value ([1]; 10 DAT, HER dose 16 g a.i./ha) was 83%, the “HER effect + SAF [%]” value ([3]; 10 DAT, HER dose 4 g a.i./ha) was 10% and the “HER effect [%]” value ([3]; 10 DAT, HER dose 4 g a.i./ha) was 50%. For the same molecule, the “HER effect + SAF [%]” value ([3]; 10 DAT, HER dose 16 g a.i./ha) was 20%, the “HER effect [%]” value ([3]; 10 DAT, HER dose 16 g a.i./ha) was 70% and the “Reduction [%]” value ([4]; 10 DAT, HER dose 4 g a.i./ha) was 67%. For the same molecule, the “Reduction [Difference]” value ([4]; 10 DAT, HER dose 4 g a.i./ha) was 20 and the “Reduction [%]” value ([4]; 10 DAT, HER dose 16 g a.i./ha) was 67%.
